Measurements taken from the kinase profiling compilation of Christmann-Franck et al. (2016).

How the values were obtained:
Assay in all cases: KINOMEscan competition binding
Settings in all cases: compound 0.1 µM
MAP3K2 (human) = MAP3K2 (human) (UniProt Q9Y2U5)
MET (human) = MET (human) (UniProt P08581)
MKNK1 (human) = MKNK1 (human) (UniProt Q9BUB5)
SLK (human) = SLK (human) (UniProt Q9H2G2)
PRKG1 (human) = PRKG1 (human) (UniProt Q13976)
CLK2 (human) = CLK2 (human) (UniProt P49760)
IRAK4 (human) = IRAK4 (human) (UniProt Q9NWZ3)
Sequence of IRAK4 (human) (Q9NWZ3 whole entry, looked up): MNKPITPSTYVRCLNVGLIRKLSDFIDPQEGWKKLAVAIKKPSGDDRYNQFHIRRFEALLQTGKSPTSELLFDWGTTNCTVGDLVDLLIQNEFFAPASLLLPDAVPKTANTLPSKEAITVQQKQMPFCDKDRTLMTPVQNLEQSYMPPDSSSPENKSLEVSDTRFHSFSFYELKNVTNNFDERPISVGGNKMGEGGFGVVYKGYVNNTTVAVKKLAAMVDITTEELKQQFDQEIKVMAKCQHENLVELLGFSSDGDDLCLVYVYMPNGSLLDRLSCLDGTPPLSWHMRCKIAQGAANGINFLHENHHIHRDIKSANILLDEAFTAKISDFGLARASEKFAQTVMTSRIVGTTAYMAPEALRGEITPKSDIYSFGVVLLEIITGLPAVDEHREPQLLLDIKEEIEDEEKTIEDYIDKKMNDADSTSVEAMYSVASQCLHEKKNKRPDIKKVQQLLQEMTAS

PIM2 (human) = PIM2 (human) (UniProt Q9P1W9)
CSNK1A1 (human) = CSNK1A1 (human) (UniProt P48729)
[1] = system: KIT (human), P10721 [D816V]
PIP4K2C (human) = PIP4K2C (human) (UniProt Q8TBX8)
LYN (human) = LYN (human) (UniProt P07948)
PIK3CG (human) = PIK3CG (human) (UniProt P48736)
ZAP70 (human) = ZAP70 (human) (UniProt P43403)
MAP3K6 (human) = MAP3K6 (human) (UniProt O95382)
CDC42BPA (human) = CDC42BPA (human) (UniProt Q5VT25)
MAP4K5 (human) = MAP4K5 (human) (UniProt Q9Y4K4)
Sequence of MAP4K5 (human) (Q9Y4K4 whole entry, looked up): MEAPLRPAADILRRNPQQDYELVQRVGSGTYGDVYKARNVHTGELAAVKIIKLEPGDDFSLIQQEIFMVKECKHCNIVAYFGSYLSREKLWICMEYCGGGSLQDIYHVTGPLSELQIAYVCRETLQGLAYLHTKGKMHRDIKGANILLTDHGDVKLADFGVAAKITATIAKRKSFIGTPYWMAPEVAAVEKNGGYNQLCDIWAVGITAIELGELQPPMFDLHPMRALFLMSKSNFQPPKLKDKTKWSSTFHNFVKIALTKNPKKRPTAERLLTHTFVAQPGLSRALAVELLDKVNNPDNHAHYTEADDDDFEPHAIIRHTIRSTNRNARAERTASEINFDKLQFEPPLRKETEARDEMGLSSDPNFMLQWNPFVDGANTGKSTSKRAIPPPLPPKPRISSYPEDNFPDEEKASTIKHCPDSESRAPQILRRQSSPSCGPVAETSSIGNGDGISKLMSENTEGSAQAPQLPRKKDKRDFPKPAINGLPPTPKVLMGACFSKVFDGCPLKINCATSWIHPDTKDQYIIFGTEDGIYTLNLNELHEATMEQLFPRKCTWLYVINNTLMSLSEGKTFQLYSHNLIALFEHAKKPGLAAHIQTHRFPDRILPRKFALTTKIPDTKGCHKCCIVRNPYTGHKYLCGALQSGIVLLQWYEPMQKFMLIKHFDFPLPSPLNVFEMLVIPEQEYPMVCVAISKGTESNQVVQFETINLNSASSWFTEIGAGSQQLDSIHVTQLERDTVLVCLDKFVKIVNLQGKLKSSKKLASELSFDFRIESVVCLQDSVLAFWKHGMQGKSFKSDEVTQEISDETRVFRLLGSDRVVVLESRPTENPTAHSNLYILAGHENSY

RAF1 (human) = RAF1 (human) (UniProt P04049)
MELK (human) = MELK (human) (UniProt Q14680)
Sequence of MELK (human) (Q14680 whole entry, looked up): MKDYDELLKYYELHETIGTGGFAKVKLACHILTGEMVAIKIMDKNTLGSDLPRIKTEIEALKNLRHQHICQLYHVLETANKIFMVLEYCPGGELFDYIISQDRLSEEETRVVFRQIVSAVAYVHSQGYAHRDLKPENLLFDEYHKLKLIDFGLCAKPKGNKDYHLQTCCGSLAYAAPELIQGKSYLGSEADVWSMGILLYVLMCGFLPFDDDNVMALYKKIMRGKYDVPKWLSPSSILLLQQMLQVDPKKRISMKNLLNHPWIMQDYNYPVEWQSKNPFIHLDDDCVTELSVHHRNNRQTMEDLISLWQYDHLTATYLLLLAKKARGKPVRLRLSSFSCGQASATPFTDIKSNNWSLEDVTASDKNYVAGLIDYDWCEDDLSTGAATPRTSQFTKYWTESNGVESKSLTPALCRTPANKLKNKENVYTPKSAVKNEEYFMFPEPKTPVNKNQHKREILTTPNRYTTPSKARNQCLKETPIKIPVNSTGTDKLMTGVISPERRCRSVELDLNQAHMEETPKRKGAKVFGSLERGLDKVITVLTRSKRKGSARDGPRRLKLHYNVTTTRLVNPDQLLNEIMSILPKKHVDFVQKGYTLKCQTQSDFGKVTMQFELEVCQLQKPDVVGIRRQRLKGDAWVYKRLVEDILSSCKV

MAPK13 (human) = MAPK13 (human) (UniProt O15264)
NEK10 (human) = NEK10 (human) (UniProt Q6ZWH5)
PRKD1 (human) = PRKD1 (human) (UniProt Q15139)
IRAK3 (human) = IRAK3 (human) (UniProt Q9Y616)
STK38L (human) = STK38L (human) (UniProt Q9Y2H1)
TNK1 (human) = TNK1 (human) (UniProt Q13470)
MAP3K12 (human) = MAP3K12 (human) (UniProt Q12852)
Sequence of MAP3K12 (human) (Q12852 whole entry, looked up): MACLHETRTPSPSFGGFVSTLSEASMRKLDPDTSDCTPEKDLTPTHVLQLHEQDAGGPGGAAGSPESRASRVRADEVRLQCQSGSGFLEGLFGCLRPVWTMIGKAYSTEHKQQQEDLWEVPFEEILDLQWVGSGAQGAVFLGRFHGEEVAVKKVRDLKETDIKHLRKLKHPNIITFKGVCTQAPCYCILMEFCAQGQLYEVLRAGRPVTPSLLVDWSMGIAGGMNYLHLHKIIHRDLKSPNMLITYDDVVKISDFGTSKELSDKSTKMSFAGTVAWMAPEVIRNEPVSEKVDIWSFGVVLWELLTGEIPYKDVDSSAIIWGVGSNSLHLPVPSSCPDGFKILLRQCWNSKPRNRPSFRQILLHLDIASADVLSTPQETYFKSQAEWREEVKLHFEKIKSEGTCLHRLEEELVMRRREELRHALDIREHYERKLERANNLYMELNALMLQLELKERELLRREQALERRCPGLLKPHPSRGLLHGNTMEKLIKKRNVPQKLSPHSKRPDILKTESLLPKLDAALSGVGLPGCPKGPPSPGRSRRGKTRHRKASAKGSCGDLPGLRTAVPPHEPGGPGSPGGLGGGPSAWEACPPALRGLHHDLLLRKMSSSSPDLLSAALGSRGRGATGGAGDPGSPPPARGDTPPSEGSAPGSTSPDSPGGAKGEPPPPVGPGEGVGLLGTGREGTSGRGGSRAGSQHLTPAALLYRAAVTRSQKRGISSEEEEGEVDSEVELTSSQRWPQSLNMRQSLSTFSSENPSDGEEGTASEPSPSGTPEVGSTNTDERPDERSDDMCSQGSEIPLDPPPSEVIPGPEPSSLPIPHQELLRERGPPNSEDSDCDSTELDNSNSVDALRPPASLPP

CSNK2A2 (human) = CSNK2A2 (human) (UniProt P19784)
MAP3K13 (human) = MAP3K13 (human) (UniProt O43283)
STK17A (human) = STK17A (human) (UniProt Q9UEE5)
MINK1 (human) = MINK1 (human) (UniProt Q8N4C8)
PKN1 (human) = PKN1 (human) (UniProt Q16512)
Sequence of PKN1 (human) (Q16512 whole entry, looked up): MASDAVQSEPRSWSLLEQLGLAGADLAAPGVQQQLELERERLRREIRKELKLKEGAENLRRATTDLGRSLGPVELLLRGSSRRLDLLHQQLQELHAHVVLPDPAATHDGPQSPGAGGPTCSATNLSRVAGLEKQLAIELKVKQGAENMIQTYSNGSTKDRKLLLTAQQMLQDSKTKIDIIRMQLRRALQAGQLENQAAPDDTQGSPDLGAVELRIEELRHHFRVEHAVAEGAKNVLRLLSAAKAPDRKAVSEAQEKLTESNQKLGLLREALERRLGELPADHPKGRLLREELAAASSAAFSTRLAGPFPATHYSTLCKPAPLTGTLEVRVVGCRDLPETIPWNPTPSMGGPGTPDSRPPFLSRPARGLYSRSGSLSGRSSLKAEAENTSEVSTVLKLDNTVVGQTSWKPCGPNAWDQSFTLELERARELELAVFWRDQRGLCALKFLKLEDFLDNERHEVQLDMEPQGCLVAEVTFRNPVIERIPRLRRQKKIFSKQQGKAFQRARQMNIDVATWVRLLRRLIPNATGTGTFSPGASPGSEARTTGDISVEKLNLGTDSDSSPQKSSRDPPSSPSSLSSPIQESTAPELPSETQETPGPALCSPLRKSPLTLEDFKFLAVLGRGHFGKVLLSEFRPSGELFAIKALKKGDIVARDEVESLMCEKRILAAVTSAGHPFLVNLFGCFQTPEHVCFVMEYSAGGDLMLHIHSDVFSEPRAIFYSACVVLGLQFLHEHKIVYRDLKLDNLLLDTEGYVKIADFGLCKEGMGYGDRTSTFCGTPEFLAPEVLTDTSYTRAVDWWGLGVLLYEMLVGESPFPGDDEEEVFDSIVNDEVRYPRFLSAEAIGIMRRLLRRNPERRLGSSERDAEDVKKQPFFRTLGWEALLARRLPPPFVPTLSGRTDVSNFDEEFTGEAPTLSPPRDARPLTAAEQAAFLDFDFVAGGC

DAPK3 (human) = DAPK3 (human) (UniProt O43293)
Sequence of DAPK3 (human) (O43293 whole entry, looked up): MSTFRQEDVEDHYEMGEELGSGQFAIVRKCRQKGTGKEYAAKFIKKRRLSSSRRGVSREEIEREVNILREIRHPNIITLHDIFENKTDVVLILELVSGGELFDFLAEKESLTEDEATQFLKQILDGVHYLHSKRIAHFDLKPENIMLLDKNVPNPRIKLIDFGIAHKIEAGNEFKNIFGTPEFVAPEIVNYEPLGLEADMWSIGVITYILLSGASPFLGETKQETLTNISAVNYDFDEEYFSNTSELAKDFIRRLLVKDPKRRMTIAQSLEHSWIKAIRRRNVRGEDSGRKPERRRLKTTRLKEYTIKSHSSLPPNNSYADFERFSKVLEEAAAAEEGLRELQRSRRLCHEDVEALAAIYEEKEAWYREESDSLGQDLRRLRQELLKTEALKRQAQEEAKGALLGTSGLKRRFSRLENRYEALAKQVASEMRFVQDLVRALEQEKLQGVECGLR

FGFR3 (human) = FGFR3 (human) (UniProt P22607)
ACVR1 (human) = ACVR1 (human) (UniProt Q04771)
PRKCD (human) = PRKCD (human) (UniProt Q05655)
CHEK2 (human) = CHEK2 (human) (UniProt O96017)
STK17B (human) = STK17B (human) (UniProt O94768)
Sequence of STK17B (human) (O94768 whole entry, looked up): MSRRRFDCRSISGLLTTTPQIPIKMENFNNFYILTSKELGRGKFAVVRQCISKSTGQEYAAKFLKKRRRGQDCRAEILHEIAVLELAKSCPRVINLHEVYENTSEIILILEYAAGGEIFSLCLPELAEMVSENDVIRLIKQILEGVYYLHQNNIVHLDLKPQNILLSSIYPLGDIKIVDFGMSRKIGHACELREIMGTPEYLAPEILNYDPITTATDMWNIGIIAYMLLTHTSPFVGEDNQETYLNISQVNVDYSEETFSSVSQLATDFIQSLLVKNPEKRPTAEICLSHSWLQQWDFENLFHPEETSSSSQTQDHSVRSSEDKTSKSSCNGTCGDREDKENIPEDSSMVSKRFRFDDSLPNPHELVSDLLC

[2] = system: PIK3CA (human), P42336 [Q546K]
STK33 (human) = STK33 (human) (UniProt Q9BYT3)
EPHA2 (human) = EPHA2 (human) (UniProt P29317)

Sequence of MKNK1 (human) (Q9BUB5 whole entry, looked up): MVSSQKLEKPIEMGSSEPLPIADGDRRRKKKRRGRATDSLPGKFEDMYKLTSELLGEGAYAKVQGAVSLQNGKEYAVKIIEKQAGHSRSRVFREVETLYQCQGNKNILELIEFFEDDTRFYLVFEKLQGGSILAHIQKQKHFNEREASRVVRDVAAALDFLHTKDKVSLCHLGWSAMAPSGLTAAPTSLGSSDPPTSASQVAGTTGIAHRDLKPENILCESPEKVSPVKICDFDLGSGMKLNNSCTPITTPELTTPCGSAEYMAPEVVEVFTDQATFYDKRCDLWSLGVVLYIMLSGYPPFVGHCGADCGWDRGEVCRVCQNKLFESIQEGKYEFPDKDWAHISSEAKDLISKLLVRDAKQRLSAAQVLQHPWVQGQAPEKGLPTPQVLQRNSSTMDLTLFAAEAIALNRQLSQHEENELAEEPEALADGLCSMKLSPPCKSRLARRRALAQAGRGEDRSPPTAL

SMILES: CCc1ccc(C(=O)Nc2cc(CN3CCN(C)CC3)cc(C(F)(F)F)c2)cc1C#Cc1cnc2ccnn2c1
- kinase still bound, per cent of control (MAP3K2 (human)): 100%
- kinase still bound, per cent of control (MET (human)): 100%
- kinase still bound, per cent of control (MKNK1 (human)): 91%
- kinase still bound, per cent of control (SLK (human)): 66%
- kinase still bound, per cent of control (PRKG1 (human)): 99%
- kinase still bound, per cent of control (CLK2 (human)): 85%
- kinase still bound, per cent of control (IRAK4 (human)): 100%
- kinase still bound, per cent of control (PIM2 (human)): 96%
- kinase still bound, per cent of control (CSNK1A1 (human)): 100%
- kinase still bound, per cent of control [1]: 81%
- kinase still bound, per cent of control (PIP4K2C (human)): 100%
- kinase still bound, per cent of control (LYN (human)): 35%
- kinase still bound, per cent of control (PIK3CG (human)): 100%
- kinase still bound, per cent of control (ZAP70 (human)): 100%
- kinase still bound, per cent of control (MAP3K6 (human)): 100%
- kinase still bound, per cent of control (CDC42BPA (human)): 84%
- kinase still bound, per cent of control (MAP4K5 (human)): 100%
- kinase still bound, per cent of control (RAF1 (human)): 57%
- kinase still bound, per cent of control (MELK (human)): 95%
- kinase still bound, per cent of control (MAPK13 (human)): 69%
- kinase still bound, per cent of control (NEK10 (human)): 100%
- kinase still bound, per cent of control (PRKD1 (human)): 100%
- kinase still bound, per cent of control (IRAK3 (human)): 80%
- kinase still bound, per cent of control (STK38L (human)): 100%
- kinase still bound, per cent of control (TNK1 (human)): 52%
- kinase still bound, per cent of control (MAP3K12 (human)): 81%
- kinase still bound, per cent of control (CSNK2A2 (human)): 100%
- kinase still bound, per cent of control (MAP3K13 (human)): 71%
- kinase still bound, per cent of control (STK17A (human)): 100%
- kinase still bound, per cent of control (MINK1 (human)): 100%
- kinase still bound, per cent of control (PKN1 (human)): 100%
- kinase still bound, per cent of control (DAPK3 (human)): 80%
- kinase still bound, per cent of control (FGFR3 (human)): 100%
- kinase still bound, per cent of control (ACVR1 (human)): 84%
- kinase still bound, per cent of control (PRKCD (human)): 100%
- kinase still bound, per cent of control (CHEK2 (human)): 100%
- kinase still bound, per cent of control (STK17B (human)): 75%
- kinase still bound, per cent of control [2]: 100%
- kinase still bound, per cent of control (STK33 (human)): 100%
- kinase still bound, per cent of control (EPHA2 (human)): 80%
